Laboratory results from patent US20210267989A1, “Novel Compounds for the Treatment, Alleviation or Prevention of Disorders Associated with Tau Aggregates” (AC Immune SA, priority 2018, published 2021).

How the values were obtained:
[1] = molecular target: T1, Tau K18 fragment aggregates (amino acids 244 to 372 of human Tau441) (Homo sapiens, UniProt P10636); experiment: Tau K18 disaggregation assay by ThT; format: biochemical; conditions: ThT fluorescence; 2 μM K18 aggregates, 30 minutes at RT
T1 construct: encompassing amino acids 244 to 372 of the longest isoform (2N4R) of human Tau441; host or cells: bacteria
T1 sequence (P10636 561-689): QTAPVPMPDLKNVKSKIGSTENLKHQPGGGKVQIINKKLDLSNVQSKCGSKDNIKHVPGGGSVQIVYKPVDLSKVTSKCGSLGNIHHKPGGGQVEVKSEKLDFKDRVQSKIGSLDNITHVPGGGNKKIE
Experimental: Tau K18 Disaggregation Assay by ThT
The Tau K18 fragment, encompassing amino acids 244 to 372 of the longest isoform (2N4R) of human Tau441, was expressed in bacteria and purified or bought from SignalChem. For the K18 disaggregation assay by ThT, 35 μM of recombinant K18 in PBS were aggregated for 24 hours at 37° C. in presence of 50 μM of heparin (Sigma-Aldrich) and 10 mM of DTT (Sigma-Aldrich) under shaking at 750 RPM. Compounds were dissolved in anhydrous dimethyl sulfoxide (DMSO, Sigma-Aldrich) to reach a concentration of 10 mM. K18 aggregates and serial dilutions of compounds were mixed together in PBS (volume 50 μL) to a final concentration of 2 μM of K18 aggregates and from 160 to 0.04 μM of compounds. The mixture was incubated for 30 minutes at room temperature (RT), then 40 μL of this mixture were transferred into a black 384-well plate assay (Perkin-Elmer) and mixed with 10 μL of 100 μM ThT in 250 mM glycine (both from Sigma-Aldrich) in PBS. Fluorescence (relative fluorescence units; RFU) was measured in monoplicate or duplicate on a Tecan reader (excitation: 440 nm; emission: 485 nm). Percentage of K18 disaggregation was then calculated and half maximal effective concentration (E050) was determined using GraphPad Prism version 5 (GraphPad Software) assuming a one-binding site fitting model.

[2] = molecular target: T2, Aggregated human Tau in human neuroblastoma cell line overexpressing full-length human Tau P301L (Homo sapiens, UniProt P10636, P618L); experiment: Reduction of intracellular Tau aggregation (AlphaLISA, aggregated Tau normalized to total Tau); format: cell-based; conditions: compound at 5 μM, 24 h, relative to DMSO-treated cells
T2 construct: overexpressing the full-length form of human Tau carrying the P301L mutation; expressed in transfected cells; host or cells: human neuroblastoma cell line (G418 selection)
T2 sequence (P10636 1-441 isoform P10636-8 P301L): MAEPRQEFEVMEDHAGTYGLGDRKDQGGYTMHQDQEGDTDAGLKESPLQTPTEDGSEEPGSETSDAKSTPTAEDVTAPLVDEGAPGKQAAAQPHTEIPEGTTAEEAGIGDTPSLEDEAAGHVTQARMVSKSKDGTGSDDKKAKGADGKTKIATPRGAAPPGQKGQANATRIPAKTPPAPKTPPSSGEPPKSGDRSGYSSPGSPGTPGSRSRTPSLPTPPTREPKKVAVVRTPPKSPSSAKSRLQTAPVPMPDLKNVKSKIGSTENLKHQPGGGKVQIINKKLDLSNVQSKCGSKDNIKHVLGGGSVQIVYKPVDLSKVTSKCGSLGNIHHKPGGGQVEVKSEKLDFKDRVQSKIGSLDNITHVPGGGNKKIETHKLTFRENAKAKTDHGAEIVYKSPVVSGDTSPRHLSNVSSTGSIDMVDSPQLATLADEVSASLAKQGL
Experimental: Reduction of Intracellular Tau Aggregation
A human neuroblastoma cell line overexpressing the full-length form of human Tau carrying the P301L mutation was cultured in complete medium [DMEM-F12 4.5 g/L Glutamax (Invitrogen), 15% FBS (Biochrom), 1% Peni/Strep (Invitrogen) supplemented with 2.5 μg/ml of G418 (Sigma-Aldrich) selection antibiotic]. The day before the experiment 5×10^5 cells/well were plated in a 6 well plate in 3 mL of complete medium. The next day, cells were incubated with DMSO or a compound of the present invention at 5 μM for additional 24 h at 37° C. After incubation, cells were trypsinized, resupsended in 100 μl of homogenization buffer [25 mM Tris-HCl pH 7.4, 150 mM NaCl, 1 mM EDTA, 1 mM EGTA containing phosphatase inhibitors (30 mM NaF, 0.2 mM Na3VO4, 1 nM okadaic acid, 1 mM PMSF, 5 mM Na4P2O7) and protease inhibitor cocktail (Complete™, Roche)], and then physically lysed with three rapid cycles of freezing and thawing. Samples were then directly tested in the AlphaLISA assay.
Phosphorylated, aggregated, and total Tau were quantified by AlphaLisa using the following antibody pairs: • HT7-Acceptor beads+biotin (BT)-Tau13-Donor beads: Total Tau • HT7-Acceptor beads+biotin (BT)-HT7-Donor beads: Aggregated human Tau
The Tau13 (Abcam) was biotinylated using EZ-Link® NHS-PEO Solid Phase biotinylation kit (Thermo Scientific), while the HT7-biotin was from a commercial source (Thermo Scientific).
For each antibody pairs the concentration of acceptor beads and biotinylated antibodies was optimized. All samples were first tested in a dilution series in PBS in order to identify the linear range and optimal dilution for each sample and assay. For the final protocol, the following reagents were added in a 384-well white OptiPlate (PerkinElmer): • 5 μL of test diluted sample • 20 μL of the mixture biotin-mAb acceptor beads at the following final concentrations: • HT7-BT at 1.25 nM in combination with HT7-Acc beads at 10 μg/ml • Tau13-BT at 5 nM in combination with HT7-Acc beads at 2.5 μg/ml
After incubation of this mixture at room temperature for 1 h, 25 μL of Streptavidin Donor beads (Perkin Elmer) at 25 μg/mL were added in the dark. Plates were analyzed after 30 min incubation using the EnSpire Alpha instrument and EnSpire Workstation version 3.00. Data for aggregated Tau were normalized to total Tau and then expressed as percentage of the DMSO-treated cells.

[3] = molecular target: T3, monomeric flTau (human Tau 2N4R; 441 amino acids) (Homo sapiens, UniProt P10636); experiment: Full-length Tau inhibition of aggregation assay by ThT (seeded with AD brain PHF); format: biochemical; conditions: 4 μM monomeric flTau + AD brain PHF 1:200, 72 h at 37° C.
T3 construct: purchased Biotechne (USA); host or cells: E coli
T3 sequence (P10636 1-441 isoform P10636-8): as the sequence (P10636 1-441 isoform P10636-8 P301L) above, with L301P counted along it
Experimental: Full-Length Tau (fIT) Inhibiton of Aggregation Assay by ThT
The isoform of human Tau (2N4R; 441 amino acids) was purchased from Biotechne (USA). The protein was expressed in bacteria E coli, purified and concentrated in PBS to a final concentration of 50 μM.
To induce Tau aggregation, 4 μM of monomeric flTau was incubated for 72 hours at 37° C. under agitation cycles consisting of both orbital shaking and mixing function using the Hula Mixer (Life Technologies) with Tau paired-helical filaments (PHF) enriched from the post-mortem brain of one Alzheimer's disease (AD) patient obtained from an external source (Tissue Solutions) diluted 1:200. The enrichment procedure was modified from Jicha et al, 1997 (Journal of Neuroscience Research 48:128-132 (1997)) and Rostagno and Ghiso, 2009 (Current protocols in cell biology (2009), Chapter 3, Unit 3.33 3.33.1-33). […]
To test the capability of compounds of this invention to inhibit Tau aggregation, serial dilution of compounds in DMSO were added to the monomeric flTau/PHF mix prior incubation. […] Fluorescence was measured in monoplicate on a Tecan reader Spark using filter (excitation at 448 nm/BW 7 nm, emission at 485 nm/BW 20 nm). A dose response type of curve was obtained out to two independent experiments each with technical duplicates and the IC50 was calculated using GraphPad Prism 7.03.

With `c1ccc2c3c([nH]c2c1)CN(c1ccc(N2CCOCC2)nc1)CC3` [Example 44] the EC50 [1] was < 10000 nM, the “% Reduction of intracellular Tau aggregation” value [2] was “+++ (+++ % > 50)” and the IC50 [3] was 390 nM.

For `Cn1c2c(c3ccccc31)CCN(c1ccc(N3CCOCC3)nc1)C2` [Example 46], the EC50 [1] was < 10000 nM, the “% Reduction of intracellular Tau aggregation” value [2] was “++ (++ % 50 < x < 25)” and the IC50 [3] was 1200 nM.
